Tests used:
FSaIIC fibrosarcoma [1] = settings: cited from earlier work
FSaIIC fibrosarcoma [2] = assay: FSaIIC fibrosarcoma tumor growth delay; assay type: in vivo, mouse (male C3H/FeJ mice); settings: PAM 10 mg/kg + Fluosol-DA, carbogen 1 hour
FSaIIC tumor cells = assay: FSaIIC tumor excision / colony forming assay (tumor cell killing); assay type: in vivo, mouse; settings: for FSaIIC cell killing by drug, dose dependence: drug alone, increasing dose; for Enhancement of tumor cell killing by UPHS at higher drug doses: higher doses of drug + UPHS vs drug alone
Protocol: The procedures and materials of Example I were employed, except as noted. In this Example, tumors were allowed to grow to approximately 100 mm^3 in volume, which took about one week after tumor cell implantation. At this time, 0.3 ml of UPHS was injected via the tail vein. Immediately afterward, PAM was administered by intraperitoneal injection. The animals were then allowed to breathe air or were placed in a circulating atmosphere of carbogen for 6 hours and then removed to air. The mice were sacrificed 24 hours after treatment to allow for full expression of drug cytotoxicity and repair of potentially lethal damage. The tumors were excised under sterile conditions and single cell suspensions were prepared for a colony forming assay. See Teicher, B. A. et al., "Approaches to Defining the Mechanism of Fluosol-DA 20%/Carbogen Enhancement of Melphalan Antitumor Activity", Cancer Res. 47:513-518 (1987); Teicher, B. A. et al., "Differential Enhancement of Melphalan Cytotoxicity in Tumor and Normal Tissue by Fluosol-DA and Oxygen Breathing", Int. J. Cancer 36:585-589 (1985); Teicher, B. A. et al., "Effects of Various Oxygenation Conditions on the Enhancement by Fluosol-DA of Melphalan Antitumor Activity", Cancer Res. 47:5036-5041 (1987); Teicher, B. A. and S. A. Holden, "A Survey of the Effect of Adding Fluosol-DA 20%/O2 to Treatment with Various Chemotherapeutic Agents", Cancer Treat. Rep. 71:173-177 (1987), Teicher, B. A. et al., "Effect of Various Oxygenation Conditions and Fluosol-DA on Cancer Chemotherapeutic Agents", Biomat., Art. Cells and Art. Organs 16:533-546 (1988). One week later, the plates were stained with crystal violet and colonies of more than 50 cells were counted.
The result for the tumor excision assays and bone marrow toxicity tests with PAM are plotted in FIG. 1 wherein the surviving fraction +SE of cells from the treated groups are compared to untreated controls.
The procedures and materials of Example II were employed except that CTX was administered instead of PAM.

[3] = test system: bone marrow granulocyte-macrophage colony forming units (CFU-GM); assay: Bone marrow toxicity, CFU-GM colony forming assay; assay type: in vivo, mouse; settings: drug + UPHS vs drug alone; PAM across entire dosage range
Protocol: The procedures and materials of Example I were employed, except as noted. In this Example, tumors were allowed to grow to approximately 100 mm^3 in volume, which took about one week after tumor cell implantation. At this time, 0.3 ml of UPHS was injected via the tail vein. Immediately afterward, PAM was administered by intraperitoneal injection. The animals were then allowed to breathe air or were placed in a circulating atmosphere of carbogen for 6 hours and then removed to air. The mice were sacrificed 24 hours after treatment to allow for full expression of drug cytotoxicity and repair of potentially lethal damage. The tumors were excised under sterile conditions and single cell suspensions were prepared for a colony forming assay. […] One week later, the plates were stained with crystal violet and colonies of more than 50 cells were counted.
Bone marrow toxicity was determined as follows. […] Colonies of at least 50 cells were scored on an acculite colony counter (Fisher, Springfield, N.J.). The results from three experiments, in which each group was measured in triplicate, were averaged. […]

Compound: N[C@@H](Cc1ccc(N(CCCl)CCCl)cc1)C(=O)O [PAM, Melphalan]
- Effect of extending carbogen breathing to 6 hours on tumor growth delay (FSaIIC fibrosarcoma [1]; PAM + Fluosol-DA, carbogen 6 hours): did not alter the tumor growth delay
- Tumor growth delay, PAM prepared in Fluosol-DA as a vehicle (FSaIIC fibrosarcoma [1]; PAM in Fluosol-DA vehicle, carbogen breathing): about 29.5 days
- Tumor growth delay, with Fluosol-DA and carbogen (FSaIIC fibrosarcoma [2]): about 9.5 days
- Increase in tumor cell killing by addition of UPHS (FSaIIC tumor cells; PAM 10 mg/kg + UPHS vs PAM alone): ~10 fold
- FSaIIC cell killing by drug, dose dependence (FSaIIC tumor cells): killed FSaIIC cells in a log-linear manner with increasing dose
- Enhancement of tumor cell killing by UPHS at higher drug doses (FSaIIC tumor cells): the enhancement in tumor cell killing with the combination treatment disappeared
- Increase in bone marrow CFU-GM killing / toxicity by addition of UPHS [3]: 3 fold

Compound: O=P1(N(CCCl)CCCl)NCCCO1 (stereo not shown) [CTX, Cyclophosphamide]
- Duration of carbogen breathing necessary for significant enhancement of growth delay (FSaIIC fibrosarcoma [1]; FSaIIC, CTX): Six hours of carbogen breathing are necessary to obtain a significant enhancement in the growth delay
- Increase in killing of FSaIIC cells by addition of UPHS (FSaIIC tumor cells; CTX 100 mg/kg + UPHS vs CTX alone): ~20 fold
- Greater kill of FSaIIC tumor cells with combined treatment (FSaIIC tumor cells; CTX 500 mg/kg (highest dose) + UPHS vs CTX alone): about 9 fold
- FSaIIC cell killing by drug, dose dependence (FSaIIC tumor cells): killed increasing numbers of FSaIIC cells with increasing doses
- Enhancement of tumor cell killing by UPHS at higher drug doses (FSaIIC tumor cells): the differential between tumor cell kill by CTX alone and CTX plus UPHS decreased as the dose of CTX was increased
- Increase in bone marrow CFU-GM killing / toxicity by addition of UPHS [3]: 2-3 fold

Reference: patent US5679638A, “Method for treating a tumor with a chemotherapeutic agent” (Biopure Corporation, priority 1993, dated 1997)
